Paper PMC9487510, “A Novel Oral GyrB/ParE Dual Binding Inhibitor Effective against Multidrug-Resistant Neisseria gonorrhoeae and Other High-Threat Pathogens” (Antimicrobial Agents and Chemotherapy, 2022)
Converted amounts (≈) assume the structure as drawn. Read-outs that look alike come from different tables or passages of the source.

System: N. gonorrhoeae clinical isolates
Assay: MIC, agar dilution (CLSI)
Format: cell-based, Neisseria gonorrhoeae
Details: for MIC: Neisseria gonorrhoeae, read-out: MIC

## CNc1cc(F)cc2c1[nH]c1nc(Oc3cnc(C)nc3)nc(N3CCC4(CC3)CO[C@@H](CO)C4)c12 [JSF-2414]
96 clinical isolates
  MIC range: 0.5 to 30 ng/mL
ATCC700825, antibiotic-susceptible strain ATCC 700825
  MIC: 3.9 ng/mL (≈ 7.9 nM)
multidrug-resistant strain H041
  MIC: 7.8 ng/mL (≈ 15.8 nM)
Strain CDC1 (GCREF2012 016)
  MIC: 3.9 ng/mL (≈ 7.9 nM)
Strain CDC2 (GCREF2012 045)
  MIC: 3.9 ng/mL (≈ 7.9 nM)
Strain CDC3 (GCREF2013 013)
  MIC: 3.9 ng/mL (≈ 7.9 nM)
Strain CDC4 (GCREF2013 030)
  MIC: 3.9 ng/mL (≈ 7.9 nM)
Strain CDC5 (GCREF2012 001)
  MIC: 3.9 ng/mL (≈ 7.9 nM)
Strain CDC6 (GCREF2012 002)
  MIC: 7.8 ng/mL (≈ 15.8 nM)
Strain CDC8 (GCREF2012 004)
  MIC: 2 ng/mL (≈ 4.05 nM)
Strain CDC9 (GCREF2012 005)
  MIC: 3.9 ng/mL (≈ 7.9 nM)
Strain CDC10 (GCREF2012 006)
  MIC: 3.9 ng/mL (≈ 7.9 nM)
Strain CDC11 (GCREF2012 007)
  MIC: 3.9 ng/mL (≈ 7.9 nM)
Strain CDC12 (GCREF2012 008)
  MIC: 3.9 ng/mL (≈ 7.9 nM)
Strain CDC13 (GCREF2012 009)
  MIC: 3.9 ng/mL (≈ 7.9 nM)
Strain CDC14 (GCREF2012 010)
  MIC: 3.9 ng/mL (≈ 7.9 nM)
Strain CDC15 (GCREF2012 011)
  MIC: 7.8 ng/mL (≈ 15.8 nM)
Strain CDC16 (GCREF2012 012)
  MIC: 7.8 ng/mL (≈ 15.8 nM)
Strain CDC18 (GCREF2012 014)
  MIC: 7.8 ng/mL (≈ 15.8 nM)
Strain CDC19 (GCREF2012 015)
  MIC: 3.9 ng/mL (≈ 7.9 nM)
Strain CDC20 (GCREF2012 017)
  MIC: 16 ng/mL (≈ 32.4 nM)
Strain CDC21 (GCREF2012 018)
  MIC: 3.9 ng/mL (≈ 7.9 nM)
Strain CDC22 (GCREF2012 019)
  MIC: 30 ng/mL (≈ 60.8 nM)
Strain CDC23 (GCREF2012 020)
  MIC: 7.8 ng/mL (≈ 15.8 nM)
Strain CDC24 (GCREF2012 021)
  MIC: 3.9 ng/mL (≈ 7.9 nM)
Strain CDC25 (GCREF2012 022)
  MIC: 3.9 ng/mL (≈ 7.9 nM)
Strain CDC26 (GCREF2012 023)
  MIC: 7.8 ng/mL (≈ 15.8 nM)
Strain CDC27 (GCREF2012 024)
  MIC: 3.9 ng/mL (≈ 7.9 nM)
Strain CDC28 (GCREF2012 025)
  MIC: 3.9 ng/mL (≈ 7.9 nM)
Strain CDC29 (GCREF2012 026)
  MIC: 7.8 ng/mL (≈ 15.8 nM)
Strain CDC30 (GCREF2012 027)
  MIC: 7.8 ng/mL (≈ 15.8 nM)
Strain CDC31 (GCREF2012 028)
  MIC: 7.8 ng/mL (≈ 15.8 nM)
Strain CDC32 (GCREF2012 029)
  MIC: 7.8 ng/mL (≈ 15.8 nM)
Strain CDC33 (GCREF2012 030)
  MIC: 7.8 ng/mL (≈ 15.8 nM)
Strain CDC34 (GCREF2012 031)
  MIC: 3.9 ng/mL (≈ 7.9 nM)
Strain CDC35 (GCREF2012 032)
  MIC: 3.9 ng/mL (≈ 7.9 nM)
Strain CDC36 (GCREF2012 033)
  MIC: 2 ng/mL (≈ 4.05 nM)
Strain CDC37 (GCREF2012 034)
  MIC: 3.9 ng/mL (≈ 7.9 nM)
Strain CDC38 (GCREF2012 035)
  MIC: 3.9 ng/mL (≈ 7.9 nM)
Strain CDC39 (GCREF2012 036)
  MIC: 3.9 ng/mL (≈ 7.9 nM)
Strain CDC40 (GCREF2012 037)
  MIC: 3.9 ng/mL (≈ 7.9 nM)
Strain CDC41 (GCREF2012 038)
  MIC: 3.9 ng/mL (≈ 7.9 nM)
Strain CDC42 (GCREF2012 039)
  MIC: 3.9 ng/mL (≈ 7.9 nM)
Strain CDC43 (GCREF2012 040)
  MIC: 3.9 ng/mL (≈ 7.9 nM)
Strain CDC45 (GCREF2012 042)
  MIC: 7.8 ng/mL (≈ 15.8 nM)
Strain CDC46 (GCREF2012 043)
  MIC: 3.9 ng/mL (≈ 7.9 nM)
Strain CDC47 (GCREF2012 044)
  MIC: 3.9 ng/mL (≈ 7.9 nM)
Strain CDC48 (GCREF2012 046)
  MIC: 3.9 ng/mL (≈ 7.9 nM)
Strain CDC49 (GCREF2012 047)
  MIC: 3.9 ng/mL (≈ 7.9 nM)
Strain CDC50 (GCREF2012 048)
  MIC: 7.8 ng/mL (≈ 15.8 nM)
Strain CDC51 (GCREF2012 049)
  MIC: 3.9 ng/mL (≈ 7.9 nM)
Strain CDC52 (GCREF2012 050)
  MIC: 3.9 ng/mL (≈ 7.9 nM)
Strain CDC53 (GCREF2012 051)
  MIC: 7.8 ng/mL (≈ 15.8 nM)
Strain CDC54 (GCREF2012 052)
  MIC: 3.9 ng/mL (≈ 7.9 nM)
Strain CDC55 (GCREF2013 001)
  MIC: 7.8 ng/mL (≈ 15.8 nM)
Strain CDC56 (GCREF2013 002)
  MIC: 3.9 ng/mL (≈ 7.9 nM)
Strain CDC57 (GCREF2013 003)
  MIC: 3.9 ng/mL (≈ 7.9 nM)
Strain CDC58 (GCREF2013 004)
  MIC: 2 ng/mL (≈ 4.05 nM)
Strain CDC59 (GCREF2013 044)
  MIC: 2 ng/mL (≈ 4.05 nM)
Strain CDC60 (GCREF2013 005)
  MIC: 7.8 ng/mL (≈ 15.8 nM)
